In assay [1] the target is T1, LbSOD (Leishmania braziliensis iron superoxide dismutase, FeSOD).
T1 construct: recombinant from pETM11-LbSOD, 6xHis-tag removed by TEV protease (23 kDa)
The assay can be described thus: Kd from concentration-response (FITC-labeled protein fluorescence / thermal shift); binding confirmed by ITC.

The target is the same in assay [2]. Kind of assay: Kd from concentration-response (FITC-labeled protein fluorescence / thermal shift). In kind it is binding.

In PMC6327998, “Synthesis and biological evaluation of thiazole derivatives as LbSOD inhibitors” (Journal of Enzyme Inhibition and Medicinal Chemistry, 2018) one finds Kd data, which are given here for 2 compounds.

In general, Kd refers to the concentration at which binding is half-saturated. As for `O=[N+]([O-])c1ccc(-c2csc(N=Cc3ccc(Br)c(Br)c3)n2)cc1` [Ju-480, N-(3,4-dibromobenzylidene)-4–(4-nitrophenyl)thiazol-2-imine], the Kd in assay [1] worked out at 0.0048 ± 0.0125 mM.
With `COc1cccc(C=Nc2nc(-c3ccc(Br)cc3)cs2)c1` [Ju-514, N-(3-methoxybenzylidene)-4–(4-bromophenyl)thiazol-2-imine], the Kd in assay [2] is 6.1 ± 0.8 mM.
